Among the data in PubChem BioAssay (NCI) are TGI values, retold here.

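Assay format: 96-well plates, 48-hour exposure. TGI is the concentration that stops growth completely.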 Where only a bound is given, the exact number is not on record here.

What all share (experiment): growth of human tumour cells (NCI), 48 h
Test [1] relates to RXF 393 renal.
Test [2] concerns MCF7 breast.
Test [3] concerns TK-10 renal.
Test [4] has as its system SK-MEL-28 melanoma.
The subject of test [5] is T-47D breast.
The test system of test [6] is LOX IMVI melanoma.
Test [7] has as its system HCT-116 colon.
The subject of test [8] is HCT-15 colon.
Test [9] has as its system HT29 colon.
Test [10] relates to A549 NSCLC.
The test system of test [11] is NCI-H522 lung.
Test [12] concerns MDA-MB-231 breast.
Test [13] deals with SNB-75 CNS.
The subject of test [14] is SF-539 CNS.
In test [15] the test system is OVCAR-5 ovarian.
For test [16], the system named is IGROV1 ovarian.
Test [17] has as its system MALME-3M melanoma.
For test [18], the system named is HOP-92 NSCLC.
Test [19] has as its system SR leukemia.

`CO/N=C(/C(=O)OC)c1ccccc1COc1cccc(C(F)(F)F)c1`: the TGI is 98 µM in [1]; 85.1 µM in test [2]; 55.4 µM in test [3]; above 100 µM in [4]; 64.7 µM in [5]; above 100 µM in [6]. In addition, the TGI in [7] is above 100 µM; in [8] it was above 100 µM; in test [9] it was above 100 µM; in [10] it was above 100 µM; in test [11], 70.2 µM; in test [12], above 100 µM. In addition, the TGI in test [13] was above 100 µM; in test [14] it was above 100 µM; in test [15] it was above 100 µM; in test [16], above 100 µM; in [17], 46.1 µM; in test [18] it was above 100 µM.

Take `[C-]#[N+]C1(C(=O)OCC)CC1`: the TGI in test [1], in test [2], in test [3], in [4], in test [5] and in test [6] was above 100 µM in each case. Further, the TGI in test [7], in test [8], in test [9], in [10], in [11] and in test [13] was above 100 µM throughout. Besides, the TGI in [14], in [15], in test [16], in test [19], in test [17] and in test [18] was above 100 µM each time.

For the compound `c1ccc2c3c([nH]c2c1)C1(CCCCC1)c1c([nH]c2ccccc12)C31CCCCC1`, the TGI in test [1] was 89.4 µM; in test [3], 88.7 µM; in [4] it was above 100 µM; in [6], above 100 µM; in [7], 37.1 µM; in test [8], above 100 µM. Further, the TGI is above 100 µM in test [9]; above 100 µM in test [10]; above 100 µM in test [11]; 36.5 µM in test [13]; above 100 µM in [15]; above 100 µM in test [16]. Further, the values for the TGI in test [19], in [17] and in [18] were 58.9 µM, 80.1 µM and 46.6 µM, respectively.

As to `N#CN1CCC=C(c2cc3ccccc3[nH]2)C1`, the TGI in test [1], in [3], in test [4], in test [6], in test [7] and in [8] was above 448 µM in each case. The TGI was above 448 µM in [9]; above 448 µM in [10]; 298 µM in [11]; above 448 µM in [14]; above 448 µM in test [15]; above 448 µM in test [16]. The TGI in test [19] was above 448 µM; in test [17] it was above 448 µM; in [18], 427 µM.

In the case of `N#CC(NNC(=O)c1ccccc1O)c1ccccc1` (centres undefined), the TGI in test [1] is 61.8 µM; in test [3] it was above 100 µM; in [4] it was above 100 µM; in test [6], above 100 µM; in test [7], above 100 µM; in test [8], above 100 µM. The TGI in test [9] is above 100 µM; in test [10] it was above 100 µM; in test [11], 52.2 µM; in test [13] it was above 100 µM; in test [14] it was above 100 µM; in test [15], above 100 µM. In addition, the TGI is above 100 µM in test [16], 24.8 µM in [19], above 100 µM in [17] and above 100 µM in test [18].

As to `O=C1c2c(nc3ccccc3c2-c2ccccc2)CN1Nc1ccccc1`, the TGI in test [3], in test [6], in [7], in test [9], in test [10] and in test [11] was above 100 µM throughout. Further, the TGI in test [15], in test [16], in test [19], in [17] and in test [18] was above 100 µM throughout.

As for `CC1=NN(C(=O)c2ccc(Cl)cc2)C(=O)/C1=C/c1ccc(O)cc1`, the TGI in test [1], in test [3], in test [4], in test [6], in test [7] and in [8] was above 100 µM in each case. The TGI in [9], in test [10], in test [11], in [14], in test [15] and in test [16] was above 100 µM in each case. Also, the TGI in [17] and in test [18] was above 100 µM each time.

On to `C/C(=N\O)C(CN1CCCCC1)C(c1ccccc1)c1c(O)c2ccccc2oc1=O` (centres undefined), for which the TGI in test [1], in test [3], in test [4], in test [6], in [7] and in test [9] was above 100 µM in each case. For the same compound, the TGI in test [10], in [11], in test [13], in test [14], in [15] and in test [16] was above 100 µM in each case. The TGI in test [17] and in test [18] was above 100 µM throughout.

`Cc1ccc(S(=O)(=O)c2c3[nH]c4ccccc4nc3n3c2nc2ccccc23)cc1`: the TGI in [3], in test [4], in test [6], in test [7], in test [8] and in test [10] was above 100 µM each time. For the same compound, the TGI in test [11], in [13], in test [14], in test [15], in test [16] and in [19] was above 100 µM each time. In addition, the TGI in test [17] and in test [18] was above 100 µM in each case.

Turning to `CCN(CC)c1cccc2c1C1(O)CCC3(CC21)OCCCCO3` (centres undefined), the TGI was 53.6 µM in test [1]; above 100 µM in test [3]; above 100 µM in [4]; above 100 µM in [6]; above 100 µM in test [7]; above 100 µM in test [8]. Also, the TGI in [9], in test [10], in test [11], in [13], in test [14] and in test [15] was above 100 µM each time. The TGI in [16] and in [17] was above 100 µM each time.

As for `FC(F)(F)C1(C(F)(F)F)O[SiH]2(OC(C(F)(F)F)(C(F)(F)F)c3ccccc32)c2ccccc21`, the TGI is 31.2 µM in test [1]; 45.5 µM in test [3]; 72.6 µM in test [4]; 25.9 µM in test [8]; 23.2 µM in [9]; 42 µM in test [11]. Moreover, the TGI in test [14] turned out to be 25.4 µM; in test [15] it was 28.4 µM; in test [19], 37.8 µM; in test [17] it was 42 µM.

As to `CC1SC(=O)SC1C` (centres undefined), the TGI in test [2], in [3], in test [4], in [5], in [7] and in test [8] was above 100 µM each time. Further, the TGI in test [10], in [11], in test [12], in test [13], in [14] and in [15] was above 100 µM each time. The TGI in [16] and in test [19] was above 100 µM throughout.

For `COC1=CC(=O)[C@]2(C)[C@H](C1=O)C(C)[C@H]2c1ccccc1` (some centres undefined), the TGI in test [1], in test [3], in test [4], in [6], in test [8] and in [9] was above 100 µM throughout. Further, the TGI in test [10], in test [11], in test [13], in test [14], in [15] and in test [16] was above 100 µM in each case. Moreover, the TGI in test [19], in [17] and in test [18] was above 100 µM throughout.

For `C=CCCCCCC(O)C(O)C/C=C\C/C=C\CC` (centres undefined), the TGI in test [1], in [3], in [4], in test [6], in test [7] and in [8] was above 18.8 µM throughout. Besides, the TGI in [9], in test [10], in [11], in test [13], in test [14] and in test [15] was above 18.8 µM in each case. In addition, the TGI in test [16], in test [19], in [17] and in test [18] was above 18.8 µM each time.

On to `O=S1c2ccccc2SCSc2ccccc21`, for which the TGI in test [1], in [2], in test [3], in [5], in test [7] and in test [8] was above 100 µM in each case. Moreover, the TGI in test [9], in test [10], in test [11], in [12], in [14] and in test [15] was above 100 µM each time. The TGI in [19] is 91.1 µM; in test [17] it was above 100 µM; in test [18] it was above 100 µM.

For the compound `O=C(CC(C(=O)c1cccs1)c1ccsc1)c1ccco1` (centres undefined), the TGI in [1] was 49.7 µM; in [2], 42.3 µM; in test [3] it was above 100 µM; in test [4], above 100 µM; in [5], 80.3 µM; in test [6], above 100 µM. Besides, the TGI worked out at 56.5 µM in test [7]; 49.5 µM in [8]; 29.7 µM in [9]; 42.9 µM in test [10]; 54.1 µM in test [11]; 84.4 µM in test [13]. Also, the TGI was 98.2 µM in test [14]; above 100 µM in test [15]; above 100 µM in test [16]; above 100 µM in test [19]; above 100 µM in test [18].

For `Clc1ccc(-c2nnc(C34CC5CC(CC(C5)C3)C4)o2)cc1`, the TGI in [1], in [4], in test [5], in test [6], in [7] and in [8] was above 100 µM each time. The TGI in test [9], in [10], in [11], in test [12], in [13] and in test [14] was above 100 µM throughout. In addition, the TGI in [15], in test [16], in [19], in test [17] and in [18] was above 100 µM in each case.

As for `COc1ccc(CCc2ccccc2CC(=O)O)cc1`, the TGI in test [1], in test [3], in test [4], in test [6], in test [7] and in test [8] was above 100 µM in each case. Further, the TGI in test [9], in test [10], in test [11], in test [13], in test [14] and in test [15] was above 100 µM in each case. Also, the TGI in [16], in [19], in test [17] and in test [18] was above 100 µM throughout.
